Here are results for four compounds from US6307108A, “Metal-ligand complex catalyzed processes” (Union Carbide Chemicals & Plastics Technology Corporation, priority 2000, dated 2001).

The data set in a line: Heptane/acetonitrile partition (Kpartition) and extraction factor after hydroformylation. Particulars: for Kpartition = amount of product in the heptane phase/amount of product in the acetonitrile phase: Examples 4, 6, 8, Ligand B reaction solution in heptane (2 milliliters) extracted with acetonitrile (2 milliliters), gas chromatography; for Kpartition = amount of material in the heptane phase/amount of material in the acetonitrile phase: room temperature; for extraction factor = Kpartition rhodium/Kpartition product: heptane/acetonitrile. The class given is physicochemical. The method, then:
To the vessel was then added an equal volume of acetonitrile. The mixture was vigorously shaken for several minutes then allowed to settle and phase separate. The layers were then analyzed for rhodium content and hydroformylation product. The partition coefficient of the catalyst and the product, as defined bay Kpartition=amount of material in the heptane phase/amount of material in the acetonitrile phase, was then determined for each component.
A portion of the reaction solution (2 milliliters) was extracted with acetonitrile (2 milliliters). The phases were separated and the content of ethyl 11-formylundecanoate product was determined in both phases by gas chromatography.
A portion of the reaction solution (2 milliliters) was extracted with acetonitrile (2 milliliters). The phases were separated, and the content of methyl 11-formylundecanoate product in each phase was determined by gas chromatography.
A portion of the reaction solution (2 milliliters) was extracted with acetonitrile (2 milliliters). The phases were separated and the content of butyl 11-formylundecanoate product was determined in both phases by gas chromatography.
A portion of the reaction solution (5 mL) was diluted with heptane (10 mL), shaken at room temperature under nitrogen with acetonitrle (13 mL) and allowed to settle. Two phases with approximately equal volumes were analyzed for rhodium and the hydroformylation product. The partition coefficient of the catalyst and the product defined as Kpartition=amount of material in the heptane phase/amount of material in the acetonitrile phase was determined for each component.

Take `CCCCOC(=O)CCCCCCCCCCC=O` [butyl 11-formylundecanoate]: the “Kpartition = amount of product in the heptane phase/amount of product in the acetonitrile phase” value amounted to 0.56.

For `CCOC(=O)CCCCCCCCCCC=O` [ethyl 11-formylundecanoate], the “Kpartition = amount of product in the heptane phase/amount of product in the acetonitrile phase” value is 0.25.

In the case of `COC(=O)CCCCCCCCCCC=O` [methyl 11-formylundecanoate], the “Kpartition = amount of product in the heptane phase/amount of product in the acetonitrile phase” value was found to be 0.19.

With rhodium, the “Kpartition = amount of material in the heptane phase/amount of material in the acetonitrile phase” value came out at 170 (Example 2, Example 1 reaction solution (Ligand A, ethyl 10-undecenoate), equal volume acetonitrile) and 166 (Example 9, Ligand A, methyl 10-undecenoate, 5 mL reaction solution diluted with heptane (10 mL), acetonitrile (13 mL)). Also, the “extraction factor = Kpartition rhodium/Kpartition product” value is 680 (Example 2) and 976 (Example 9).
